Test results as given in patent US8552176B2 (priority 2010, dated 2013).

Assays:
OVCAR-8 = assay: NCI 60 Human Tumor Cell Line Anticancer Screen; type: cell-based; settings: OVCAR-8, Ovary
DU-145 [1] = assay: NCI 60 Human Tumor Cell Line Anticancer Screen; type: cell-based; settings: DU-145, Prostate
EKVX = assay: NCI 60 Human Tumor Cell Line Anticancer Screen; type: cell-based; settings: Non-small cell lung
SK-MEL-28 = assay: NCI 60 Human Tumor Cell Line Anticancer Screen; type: cell-based; settings: SK-MEL-28, Melanoma
HL-60 (TB) = type: cell-based, human
COLO 205 = assay: NCI 60 Human Tumor Cell Line Anticancer Screen; type: cell-based; settings: COLO 205, Colon
SKOV3 [2] = assay: NCI 60 Human Tumor Cell Line Anticancer Screen; type: cell-based; settings: SKOV3, Ovary
HS 578T = assay: NCI 60 Human Tumor Cell Line Anticancer Screen; type: cell-based; settings: Breast
HCT-15 = assay: cells; type: cell-based, human
SW-620 = assay: NCI 60 Human Tumor Cell Line Anticancer Screen; type: cell-based; settings: SW-620, Colon
M14 = assay: NCI 60 Human Tumor Cell Line Anticancer Screen; type: cell-based; settings: M14, Melanoma
SKOV3 [3] = assay: cells; type: cell-based, human; settings: read-out: GI50 SKOV3 ovary
HT29 = assay: NCI 60 Human Tumor Cell Line Anticancer Screen; type: cell-based; settings: HT29, Colon
NCI-H226 = assay: NCI 60 Human Tumor Cell Line Anticancer Screen; type: cell-based; settings: NCI-H226, Non-small cell lung
NCI/ADR-RES = assay: NCI 60 Human Tumor Cell Line Anticancer Screen; type: cell-based; settings: Ovary
NCI-H23 = assay: NCI 60 Human Tumor Cell Line Anticancer Screen; type: cell-based; settings: NCI-H23, Non-small cell lung
MDA-MB-468 = assay: NCI 60 Human Tumor Cell Line Anticancer Screen; type: cell-based; settings: MDA-MB-468, Breast
U251 = assay: NCI 60 Human Tumor Cell Line Anticancer Screen; type: cell-based; settings: U251, CNS
SK-MEL-2 = assay: NCI 60 Human Tumor Cell Line Anticancer Screen; type: cell-based; settings: SK-MEL-2, Melanoma
TK-10 = assay: NCI 60 Human Tumor Cell Line Anticancer Screen; type: cell-based; settings: TK-10, Renal
UACC-62 = assay: NCI 60 Human Tumor Cell Line Anticancer Screen; type: cell-based; settings: UACC-62, Melanoma
[4] = tested on: ten-member panel of human carcinomas; assay: cells; type: cell-based
NCI-H522 = assay: NCI 60 Human Tumor Cell Line Anticancer Screen; type: cell-based; settings: NCI-H522, Non-small cell lung
OVCAR-3 = assay: NCI 60 Human Tumor Cell Line Anticancer Screen; type: cell-based; settings: OVCAR-3, Ovary
786-0 = assay: NCI 60 Human Tumor Cell Line Anticancer Screen; type: cell-based; settings: 786-0, Renal
DU-145 [5] = assay: cells; type: cell-based, human; settings: read-out: GI50 DU-145 prostate
A549/ATCC = assay: NCI 60 Human Tumor Cell Line Anticancer Screen; type: cell-based; settings: Non-small cell lung
HOP-92 = assay: NCI 60 Human Tumor Cell Line Anticancer Screen; type: cell-based; settings: HOP-92, Non-small cell lung
UO-31 = assay: NCI 60 Human Tumor Cell Line Anticancer Screen; type: cell-based; settings: UO-31, Renal

CON(CCCCc1ccc(N(CCCl)CCCl)cc1)C1OCC(O)C1O (centres unmarked) [Compound 60]
GI50 (OVCAR-8): 9.13 µM | Inhibition at 10 μM (OVCAR-8; 10 μM): 68.13% | GI50 (DU-145 [1]): 4.84 µM | Inhibition at 10 μM (DU-145 [1]; 10 μM): 56.78% | GI50 (EKVX): 37.9 µM | Inhibition at 10 μM (EKVX; 10 μM): 91.24% | GI50 (SK-MEL-28): 36.5 µM | Inhibition at 10 μM (SK-MEL-28; 10 μM): 116.87% | GI50 (HL-60 (TB)): 1.88 µM | Inhibition at 10 μM (HL-60 (TB)): 68.31% | GI50 (COLO 205): 12.7 µM | Inhibition at 10 μM (COLO 205; 10 μM): 93.34% | GI50 (SKOV3 [2]): 17.9 µM | Inhibition at 10 μM (SKOV3 [2]; 10 μM): 72.76% | GI50 (HS 578T): 24.7 µM | Inhibition at 10 μM (HS 578T; 10 μM): 139.25% | improved activity over the parent drug (HCT-15): 15 fold | GI50 (HCT-15; read-out: GI50 HCT-15 colorectal): 0.53 ± 0.05 µM | GI50 (SW-620): 12.4 µM | Inhibition at 10 μM (SW-620; 10 μM): 68.08% | GI50 (M14): 9.25 µM | Inhibition at 10 μM (M14; 10 μM): 67.23% | GI50 (SKOV3 [3]): 1.5 ± 0.1 µM | GI50 (HT29): 26.6 µM | Inhibition at 10 μM (HT29; 10 μM): 70.71% | GI50 (NCI-H226): 0.925 µM | Inhibition at 10 μM (NCI-H226; 10 μM): 84.25% | GI50 (NCI/ADR-RES): 4.61 µM | Inhibition at 10 μM (NCI/ADR-RES; 10 μM): 61.54% | GI50 (NCI-H23): 7.15 µM | Inhibition at 10 μM (NCI-H23; 10 μM): 54.44% | GI50 (MDA-MB-468): 7.25 µM | Inhibition at 10 μM (MDA-MB-468; 10 μM): 43.87% | GI50 (U251): 13.1 µM | Inhibition at 10 μM (U251; 10 μM): 59.94% | GI50 (SK-MEL-2): 20.2 µM | Inhibition at 10 μM (SK-MEL-2; 10 μM): 100.16% | GI50 (TK-10): 31.7 µM | Inhibition at 10 μM (TK-10; 10 μM): 97.20% | GI50 (UACC-62): 1.69 µM | Inhibition at 10 μM (UACC-62; 10 μM): 52.06% | improvement in average growth inhibition across the cell panel [4]: 8 fold | increases in potency compared to 1 [4]: up to 15 fold | GI50 (NCI-H522): 10 µM | Inhibition at 10 μM (NCI-H522; 10 μM): 52.38% | GI50 (OVCAR-3): 15.3 µM | Inhibition at 10 μM (OVCAR-3; 10 μM): 85.34% | GI50 (786-0): 6.16 µM | Inhibition at 10 μM (786-0; 10 μM): 67.90% | GI50 (DU-145 [5]): 1.8 ± 0.1 µM | GI50 (A549/ATCC): 12.2 µM | Inhibition at 10 μM (A549/ATCC; 10 μM): 69.72% | GI50 (HOP-92): 4.03 µM | Inhibition at 10 μM (HOP-92; 10 μM): 58.81% | GI50 (UO-31): 0.856 µM | Inhibition at 10 μM (UO-31; 10 μM): 54.43%
